Source: patent US20120289566A1, “COMBINATIONS OF FESOTERODINE AND SALIVARY STIMULANTS FOR THE TREATMENT OF OVERACTIVE BLADDER” (THERAVIDA, INC., priority 2011, published 2012)

Tests used:
[1] = tested on: saliva flow; assay: Case study: stimulated saliva output (Parafilm chewing, 2 min) after Toviaz and pilocarpine in a single individual; format: in vivo, human; conditions: after the administration of 8 mg Toviaz
Description: In this study, the effect of fesoterodine (Toviaz®), pilocarpine, the combination of the two, and placebo was measured in separate, yet identical, studies in a single individual.
The following protocol was for a pilot human study to evaluate the extent of saliva flow rate following the administration of 8 mg Toviaz® capsule and 5 or 7.5 mg pilocarpine HCl tablet after about 2.5 hrs from fesoterodine administration. The subject was a healthy, person. The subject performed the following: • 1. Fast the night before. • 2. No coffee or soda 8 hrs prior to taking the first dose. • 3. Record time voiding and measure urine if possible. • 4. Record extent of dryness of the mouth (Very dry, dry, and not dry). • 5. Record any adverse event. • 6. Chew a 1″×1″ piece of Parafilm (American National Can (Neenah, Wis. 54956) Bar code No. 7-466676999) over 2 minutes. • 7. Collect wetted Parafilm and saliva into a tared container (pre-weighed container). • 8. Measure the amount of saliva collected. • 9. Plot Saliva collected per 2 min time intervals against time.
The subject fasted overnight, but had 240 mL of water 1 hr prior to dose. The water continued ad lib until 1 hr pre and 1 hr post dose, other than 120 mL with Toviaz® and 120 mL with 5 mg Salagen® tablet. For lunch, the subject consumed a light sandwich. No coffee, soda, or caffeinated or alcoholic beverages was consumed.

[2] = tested on: saliva output; conditions: 5 mg of pilocarpine; cited from earlier work

## CC[C@@H]1C(=O)OC[C@@H]1Cc1cncn1C [pilocarpine]
[1]
  time of pilocarpine administration after Toviaz at which best results are obtained: 2.3 to 2.5 h
[2]
  time of maximum saliva output after administration: about 30 minutes
